Reference: the NIST ThermoML archive (doi:10.1021/je0340755)
± gives the expanded uncertainty stated by the source.

Test: xn = mol fraction of the nth substance listed
Conditions: 101.3 kPa, Liquid; for viscosity: Capillary tube (Ostwald / Ubbelohde) method

CC(O)C(C)O (centres undefined) [2,3-butanediol] + O
Conditions	mass density [kg/m3]	speed of sound [m/s]	viscosity [mPa·s]
298.15 K, x2 = 0.0546	999.76 ± 0.35	1483 ± 6.2	41.89 ± 0.2
298.15 K, x2 = 0.1435	1001.87 ± 0.34	1501.3 ± 6.2	36.73 ± 0.17
298.15 K, x2 = 0.2458	1004.58 ± 0.33	1520.7 ± 6.3	30.5 ± 0.15
298.15 K, x2 = 0.3539	1007.87 ± 0.33	1548.5 ± 6.4	24.04 ± 0.12
298.15 K, x2 = 0.4502	1011.19 ± 0.33	1576.9 ± 6.5	18.63 ± 0.1
298.15 K, x2 = 0.4989	1013.01 ± 0.33	1589.5 ± 6.5	16.08 ± 0.093
298.15 K, x2 = 0.5503	1014.99 ± 0.33	1604.9 ± 6.5	13.54 ± 0.086
298.15 K, x2 = 0.6581	1019.13 ± 0.33	1637.2 ± 6.6	8.918 ± 0.075
298.15 K, x2 = 0.7518	1021.95 ± 0.33	1667.8 ± 6.7	5.811 ± 0.069
298.15 K, x2 = 0.8626	1021.36 ± 0.32	1673.2 ± 6.7	3.267 ± 0.065
298.15 K, x2 = 0.9092	1017.89 ± 0.31	1657.9 ± 6.7	2.463 ± 0.064
298.15 K, x2 = 0.9148	1017.25 ± 0.31	1651.5 ± 6.7	2.372 ± 0.064
298.15 K, x2 = 0.9248	1015.95 ± 0.31	1645.4 ± 6.7	2.21 ± 0.064
298.15 K, x2 = 0.9305	1015.11 ± 0.3	1640.3 ± 6.6	2.118 ± 0.064
298.15 K, x2 = 0.935	1014.4 ± 0.3	–	2.044 ± 0.064
298.15 K, x2 = 0.9452	1012.61 ± 0.29	–	1.878 ± 0.064
298.15 K, x2 = 0.9542	1010.78 ± 0.29	1616.9 ± 6.6	1.729 ± 0.064
298.15 K, x2 = 0.9703	1006.89 ± 0.28	–	1.453 ± 0.064
298.15 K, x2 = 0.98	1004.1 ± 0.27	–	1.278 ± 0.063
298.15 K, x2 = 0.9903	1000.7 ± 0.26	–	1.083 ± 0.063
298.15 K, x2 = 0.9925	999.91 ± 0.26	–	1.04 ± 0.063
298.15 K, x2 = 0.9951	998.95 ± 0.26	1577.9 ± 6.5	0.99 ± 0.063
308.15 K, x2 = 0.0546	993.26 ± 0.36	1446.8 ± 6.1	21.57 ± 0.12
308.15 K, x2 = 0.1435	995.29 ± 0.34	1464.7 ± 6.1	19.07 ± 0.11
308.15 K, x2 = 0.2458	997.92 ± 0.32	1483.6 ± 6.2	16.07 ± 0.096
308.15 K, x2 = 0.3539	1001.1 ± 0.31	1510.7 ± 6.3	12.95 ± 0.086
308.15 K, x2 = 0.4502	1004.34 ± 0.31	1538.4 ± 6.3	10.32 ± 0.079
308.15 K, x2 = 0.4989	1006.11 ± 0.31	1550.7 ± 6.4	9.06 ± 0.076
308.15 K, x2 = 0.5503	1008.06 ± 0.31	1565.8 ± 6.4	7.8 ± 0.073
308.15 K, x2 = 0.6581	1012.2 ± 0.31	1597.3 ± 6.5	5.443 ± 0.069
308.15 K, x2 = 0.7518	1015.17 ± 0.31	1627.1 ± 6.6	3.773 ± 0.066
308.15 K, x2 = 0.8626	1015.24 ± 0.31	1632.4 ± 6.6	2.265 ± 0.064
308.15 K, x2 = 0.9092	1012.39 ± 0.29	1617.5 ± 6.6	1.743 ± 0.064
308.15 K, x2 = 0.9148	1011.85 ± 0.29	1611.2 ± 6.5	1.682 ± 0.064
308.15 K, x2 = 0.9248	1010.74 ± 0.29	1605.3 ± 6.5	1.574 ± 0.064
308.15 K, x2 = 0.9305	1010.02 ± 0.29	1600.3 ± 6.5	1.512 ± 0.064
308.15 K, x2 = 0.935	1009.4 ± 0.28	1597.2 ± 6.5	1.463 ± 0.064
308.15 K, x2 = 0.9452	1007.83 ± 0.28	1588.3 ± 6.5	1.352 ± 0.063
308.15 K, x2 = 0.9542	1006.24 ± 0.27	1577.5 ± 6.4	1.254 ± 0.063
308.15 K, x2 = 0.9703	1002.81 ± 0.26	1570.9 ± 6.4	1.074 ± 0.063
308.15 K, x2 = 0.98	1000.33 ± 0.26	1557.9 ± 6.4	0.962 ± 0.063
308.15 K, x2 = 0.9903	997.3 ± 0.26	1547.6 ± 6.3	0.839 ± 0.063
308.15 K, x2 = 0.9925	996.59 ± 0.27	1543.9 ± 6.3	0.812 ± 0.063
308.15 K, x2 = 0.9951	995.73 ± 0.27	1539.4 ± 6.3	0.779 ± 0.063
318.15 K, x2 = 0.0546	985.33 ± 0.38	1418.4 ± 6	12.04 ± 0.086
318.15 K, x2 = 0.1435	987.34 ± 0.36	1436 ± 6	10.64 ± 0.081
318.15 K, x2 = 0.2458	989.9 ± 0.34	1454.5 ± 6.1	8.953 ± 0.076
318.15 K, x2 = 0.3539	993.04 ± 0.32	1481.1 ± 6.2	7.207 ± 0.072
318.15 K, x2 = 0.4502	996.28 ± 0.31	1508.2 ± 6.2	5.737 ± 0.069
318.15 K, x2 = 0.4989	998.08 ± 0.3	1520.3 ± 6.3	5.036 ± 0.068
318.15 K, x2 = 0.5503	1000.07 ± 0.29	1535.1 ± 6.3	4.339 ± 0.067
318.15 K, x2 = 0.6581	1004.28 ± 0.29	1566 ± 6.4	3.047 ± 0.065
318.15 K, x2 = 0.7518	1007.26 ± 0.29	1595.2 ± 6.5	2.15 ± 0.064
318.15 K, x2 = 0.8626	1007.49 ± 0.28	1605.3 ± 6.5	1.37 ± 0.063
318.15 K, x2 = 0.9092	1005.07 ± 0.27	1598.9 ± 6.5	1.108 ± 0.063
318.15 K, x2 = 0.9148	1004.61 ± 0.27	1596.7 ± 6.5	1.078 ± 0.063
318.15 K, x2 = 0.9248	1003.67 ± 0.27	1596.3 ± 6.5	1.025 ± 0.063
318.15 K, x2 = 0.9305	1003.07 ± 0.27	1590.4 ± 6.5	0.995 ± 0.063
318.15 K, x2 = 0.935	1002.56 ± 0.26	1583.1 ± 6.5	0.969 ± 0.063
318.15 K, x2 = 0.9452	1001.27 ± 0.26	1580.2 ± 6.4	0.915 ± 0.063
318.15 K, x2 = 0.9542	999.96 ± 0.26	1578.1 ± 6.4	0.866 ± 0.063
318.15 K, x2 = 0.9703	997.18 ± 0.26	1571.6 ± 6.4	0.775 ± 0.063
318.15 K, x2 = 0.98	995.19 ± 0.27	1558.5 ± 6.4	0.719 ± 0.063
318.15 K, x2 = 0.9903	992.79 ± 0.28	1548.2 ± 6.3	0.657 ± 0.063
318.15 K, x2 = 0.9925	992.23 ± 0.28	1544.5 ± 6.3	0.644 ± 0.063
318.15 K, x2 = 0.9951	991.55 ± 0.28	1540 ± 6.3	0.627 ± 0.063
328.15 K, x2 = 0.0546	971.78 ± 0.41	1397.7 ± 5.9	7.267 ± 0.073
328.15 K, x2 = 0.1435	973.84 ± 0.39	1413.9 ± 6	6.438 ± 0.071
328.15 K, x2 = 0.2458	976.48 ± 0.38	1431.2 ± 6	5.44 ± 0.069
328.15 K, x2 = 0.3539	979.73 ± 0.36	1456.9 ± 6.1	4.404 ± 0.067
328.15 K, x2 = 0.4502	983.14 ± 0.34	1482.2 ± 6.2	3.532 ± 0.066
328.15 K, x2 = 0.4989	985.04 ± 0.33	1494.1 ± 6.2	3.117 ± 0.065
328.15 K, x2 = 0.5503	987.17 ± 0.32	1508.7 ± 6.2	2.705 ± 0.065
328.15 K, x2 = 0.6581	991.86 ± 0.3	1537.6 ± 6.3	1.94 ± 0.064
328.15 K, x2 = 0.7518	995.6 ± 0.28	1567.1 ± 6.4	1.412 ± 0.063
328.15 K, x2 = 0.8626	997.57 ± 0.27	1596.6 ± 6.5	0.954 ± 0.063
328.15 K, x2 = 0.9092	996.39 ± 0.27	1594.5 ± 6.5	0.802 ± 0.063
328.15 K, x2 = 0.9148	996.11 ± 0.27	1592.9 ± 6.5	0.784 ± 0.063
328.15 K, x2 = 0.9248	995.52 ± 0.27	1590.3 ± 6.5	0.753 ± 0.063
328.15 K, x2 = 0.9305	995.13 ± 0.27	1585.9 ± 6.5	0.735 ± 0.063
328.15 K, x2 = 0.935	994.78 ± 0.27	1570.1 ± 6.4	0.721 ± 0.063
328.15 K, x2 = 0.9452	993.9 ± 0.27	1574.2 ± 6.4	0.689 ± 0.063
328.15 K, x2 = 0.9542	992.98 ± 0.28	1573 ± 6.4	0.661 ± 0.063
328.15 K, x2 = 0.9703	990.96 ± 0.28	1570.4 ± 6.4	0.607 ± 0.063
328.15 K, x2 = 0.98	989.48 ± 0.29	1561.6 ± 6.4	0.574 ± 0.063
328.15 K, x2 = 0.9903	987.67 ± 0.29	1553.7 ± 6.4	0.539 ± 0.063
328.15 K, x2 = 0.9925	987.24 ± 0.29	1551.3 ± 6.4	0.531 ± 0.063
328.15 K, x2 = 0.9951	986.72 ± 0.3	1548.3 ± 6.3	0.521 ± 0.063
338.15 K, x2 = 0.0546	963.14 ± 0.43	1379 ± 5.8	4.899 ± 0.069
338.15 K, x2 = 0.1435	965.14 ± 0.42	1394.6 ± 5.9	4.365 ± 0.067
338.15 K, x2 = 0.2458	967.72 ± 0.4	1410.6 ± 5.9	3.722 ± 0.066
338.15 K, x2 = 0.3539	970.91 ± 0.38	1433.2 ± 6	3.054 ± 0.065
338.15 K, x2 = 0.4502	974.25 ± 0.36	1457.5 ± 6.1	2.49 ± 0.064
338.15 K, x2 = 0.4989	976.14 ± 0.36	1468.9 ± 6.1	2.221 ± 0.064
338.15 K, x2 = 0.5503	978.26 ± 0.34	1482.2 ± 6.2	1.951 ± 0.064
338.15 K, x2 = 0.6581	982.97 ± 0.32	1510.5 ± 6.2	1.447 ± 0.064
338.15 K, x2 = 0.7518	986.9 ± 0.31	1540 ± 6.3	1.089 ± 0.063
338.15 K, x2 = 0.8626	989.57 ± 0.29	1573.7 ± 6.4	0.768 ± 0.063
338.15 K, x2 = 0.9092	988.99 ± 0.29	1577.3 ± 6.4	0.656 ± 0.063
338.15 K, x2 = 0.9148	988.8 ± 0.29	1576 ± 6.4	0.644 ± 0.063
338.15 K, x2 = 0.9248	988.39 ± 0.29	1576.1 ± 6.4	0.621 ± 0.063
338.15 K, x2 = 0.9305	988.1 ± 0.29	1572.2 ± 6.4	0.608 ± 0.063
338.15 K, x2 = 0.935	987.85 ± 0.29	1559.7 ± 6.4	0.598 ± 0.063
338.15 K, x2 = 0.9452	987.18 ± 0.29	1564.6 ± 6.4	0.573 ± 0.063
338.15 K, x2 = 0.9542	986.46 ± 0.3	1566.2 ± 6.4	0.552 ± 0.063
338.15 K, x2 = 0.9703	984.86 ± 0.3	1566.1 ± 6.4	0.513 ± 0.063
338.15 K, x2 = 0.98	983.67 ± 0.3	1561.3 ± 6.4	0.49 ± 0.063
338.15 K, x2 = 0.9903	982.18 ± 0.31	1556.6 ± 6.4	0.463 ± 0.063
338.15 K, x2 = 0.9925	981.83 ± 0.31	1555.4 ± 6.4	0.458 ± 0.063
338.15 K, x2 = 0.9951	981.4 ± 0.31	1552.7 ± 6.4	0.451 ± 0.063
